Non-standard residues stand in square brackets, D forms with d. Residues, ends and D or L forms follow the SMILES beside them. *: point of attachment. GlcA(β-D,1-O-dodecyl) = CCCCCCCCCCCCO[C@@H]1O[C@H](C(=O)*)[C@@H](O)[C@H](O)[C@H]1O; GlcA(β1-O-octyl) = CCCCCCCCO[C@@H]1O[C@H](C(=O)*)[C@@H](O)[C@H](O)[C@H]1O; βGlcA(1-OMe) = CO[C@@H]1O[C@H](C(=O)*)[C@@H](O)[C@H](O)[C@H]1O; Phe(2,4,6-Me3) = Cc1cc(C)c(C[C@H](N)C(=O)O)c(C)c1; Dmt = Cc1cc(O)cc(C)c1C[C@H](N)C(=O)O; Tic = O=C(O)[C@@H]1Cc2ccccc2CN1; Aib = CC(C)(N)C(=O)O; NHBn = c1ccc(CN*)cc1
Each compound was assayed against T1, mu opioid receptor (Homo sapiens, UniProt P35372) (assay: mu opioid receptor cellular assay (MOP, agonist and antagonist mode), cAMP readout, Cerep). Conditions: MOP agonist mode and DOP antagonist mode.
T1 construct: Cerep SA (contract research organization)
Format: cell-based
Experimental: Compounds were weighed precisely in an amount of approximately 2 mg and assayed in standard cellular assays by the contract research organization Cerep, Inc. (Pullman, Wash.) as executed at their subsidiary, Cerep SA (Le Bois l'Eveque, France). The readout is the amount of cAMP generated in the cells treated with the test compounds, in either agonist or antagonist mode. The assays used were the mu opioid receptor cellular assay (MOP in agonist and antagonist mode), the delta2 opioid receptor cellular assay (DOP in agonist and antagonist mode) and the kappa opioid receptor cellular assay (KOP in agonist and antagonist mode). The assays used are described in Wang, J. B., et al. (1994) FEBS Lett 338: 217-222, Law, P. Y. and Loh, H. H. (1993) Mol Pharmacol 43: 684-693, and Avidor-Reiss, T., et al. (1995) FEBS Lett 361: 70-74. The stimulant for the cells in the DOR antagonist assay was 3×10E-8M DPDPE, a well-accepted DOR literature standard.

T1 sequence (P35372 whole entry): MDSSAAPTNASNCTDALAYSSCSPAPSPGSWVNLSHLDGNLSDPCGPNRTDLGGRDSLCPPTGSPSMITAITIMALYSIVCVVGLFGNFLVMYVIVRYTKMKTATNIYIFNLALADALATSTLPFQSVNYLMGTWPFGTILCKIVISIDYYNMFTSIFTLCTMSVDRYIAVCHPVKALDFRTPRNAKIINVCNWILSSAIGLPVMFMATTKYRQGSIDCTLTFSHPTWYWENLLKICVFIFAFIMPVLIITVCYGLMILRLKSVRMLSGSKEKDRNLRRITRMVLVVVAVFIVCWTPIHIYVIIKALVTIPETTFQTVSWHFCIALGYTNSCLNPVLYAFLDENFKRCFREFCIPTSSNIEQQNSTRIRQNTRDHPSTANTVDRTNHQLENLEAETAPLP

| SMILES | Characterization |
| --- | --- |
| CCCCCCCCO[C@@H]1O[C@H](C(=O)NCCCC[C@H](NC(=O)[C@H](Cc2ccccc2)NC(=O)[C@@H]2Cc3ccccc3CN2C(=O)[C@@H](N)Cc2c(C)cc(O)cc2C)C(N)=O)[C@@H](O)[C@H](O)[C@H]1O [EU-A180, Dmt-Tic-Phe-Lys(C8-glucuronyl)-NH2] (H-[Dmt][Tic]FK(GlcA(β1-O-octyl))-NH2) | Pure MOP Ag; pure DOP antag |
| CO[C@@H]1O[C@H](C(=O)NCCCC[C@H](NC(=O)[C@H](Cc2ccccc2)NC(=O)[C@H](Cc2ccccc2)NC(=O)[C@@H]2Cc3ccccc3CN2C(=O)[C@@H](N)Cc2c(C)cc(O)cc2C)C(N)=O)[C@@H](O)[C@H](O)[C@H]1O [EU-A189, 2′,6′-dimethyl-L-tyrosyl-L-1,2,3,4-tetrahydroisoquinoline-3-carbonyl-L-phenylalanyl-L-phenylalanys-Nε-(1′-methyl β-D-glucuronyl)-L-lysyl-amide] | Pure MOP Ag; pure DOP antag |
| CO[C@@H]1O[C@H](C(=O)NCCCC[C@H](NC(=O)[C@H](Cc2ccccc2)NC(=O)[C@@H]2Cc3ccccc3CN2C(=O)[C@@H](N)Cc2c(C)cc(O)cc2C)C(=O)NC(C)(C)C(N)=O)[C@@H](O)[C@H](O)[C@H]1O [EU-A600, Dmt-Tic-Phe-Lys(C1-glucuronyl)-Aib-NH2] (H-[Dmt][Tic]FK(βGlcA(1-OMe))[Aib]-NH2) | Pure MOP Ag; pure DOP antag |
| CO[C@@H]1O[C@H](C(=O)NCCCC[C@H](NC(=O)[C@H](Cc2ccccc2)NC(=O)[C@@H]2Cc3ccccc3CN2C(=O)[C@@H](N)Cc2c(C)cc(O)cc2C)C(=O)NCc2ccccc2)[C@@H](O)[C@H](O)[C@H]1O [EU-A620, Dmt-Tic-Phe-Lys(C1-glucuronyl)-NHCH2Ph] (H-[Dmt][Tic]FK(βGlcA(1-OMe))-NHBn) | Pure MOP Ag; pure DOP antag |
| CO[C@@H]1O[C@H](C(=O)NCCCC[C@@H](NC(=O)[C@H](Cc2ccccc2)NC(=O)[C@@H]2Cc3ccccc3CN2C(=O)[C@@H](N)Cc2c(C)cc(O)cc2C)C(=O)NCc2ccccc2)[C@@H](O)[C@H](O)[C@H]1O [EU-A639, Dmt-Tic-Phe-D-Lys(C1-glucuronyl)-NHCH2Ph] (H-[Dmt][Tic]F[dK](βGlcA(1-OMe))-NHBn; N-terminus assumed) | Pure MOP Ag; pure DOP antag |

Same assay, conditions: MOP agonist/antagonist modes

| SMILES | Characterization |
| --- | --- |
| CO[C@@H]1O[C@H](C(=O)NCCCC[C@H](NC(=O)[C@H](Cc2c(C)cc(C)cc2C)NC(=O)[C@@H]2CCCN2C(=O)[C@@H](N)Cc2c(C)cc(O)cc2C)C(N)=O)[C@@H](O)[C@H](O)[C@H]1O [EU-A101, Dmt-Pro-Tmp-Lys(C1-glucuronyl)-NH2] (H-[Dmt]P[Phe(2,4,6-Me3)]K(βGlcA(1-OMe))-NH2; N-terminus assumed) | pure agonist |
| CCCCCCCCO[C@@H]1O[C@H](C(=O)NCCCC[C@H](NC(=O)[C@H](Cc2c(C)cc(C)cc2C)NC(=O)[C@@H]2CCCN2C(=O)[C@@H](N)Cc2c(C)cc(O)cc2C)C(N)=O)[C@@H](O)[C@H](O)[C@H]1O [EU-A102, 2′,6′-dimethyl-L-tyrosyl-prolyl-2′,4′,6′-trimethyl-L-phenylalanyl-Nε-(1′-octyl β-D-glucuronyl)-L-lysine amide] (H-[Dmt]P[Phe(2,4,6-Me3)]K(GlcA(β1-O-octyl))-NH2) | partial agonist |
| CCCCCCCCCCCCO[C@@H]1O[C@H](C(=O)NCCCC[C@H](NC(=O)[C@H](Cc2c(C)cc(C)cc2C)NC(=O)[C@@H]2CCCN2C(=O)[C@@H](N)Cc2c(C)cc(O)cc2C)C(N)=O)[C@@H](O)[C@H](O)[C@H]1O [EU-A103, Dmt-Pro-Tmp-Lys(C12-glucuronyl)-NH2] (H-[Dmt]P[Phe(2,4,6-Me3)]K(GlcA(β-D,1-O-dodecyl))-NH2; N-terminus assumed) | pure antagonist |
| CO[C@@H]1O[C@H](C(=O)NCCCC[C@@H](NC(=O)[C@@H](N)Cc2c(C)cc(O)cc2C)C(=O)N[C@@H](Cc2c(C)cc(C)cc2C)C(=O)N[C@@H](Cc2ccccc2)C(N)=O)[C@@H](O)[C@H](O)[C@H]1O [EU-A107, Dmt-D-Lys(C1-glucuronyl)-Tmp-Phe-NH2] (H-[Dmt][dK](βGlcA(1-OMe))[Phe(2,4,6-Me3)]F-NH2; N-terminus assumed) | Agonist |
